# Test results reported in PMC5049785, “Characterization of Novel Antimalarial Compound ACT-451840: Preclinical Assessment of Activity and Dose–Efficacy Modeling” (PLoS Medicine, 2016).
# How the values were obtained:
# [1] = tested on: P. falciparum NF54 strain; experiment: [3H]-hypoxanthine incorporation assay, NF54; type: cell-based, Plasmodium falciparum; settings: mean ± SD
# Method: (§1) In vitro time-, stage-, and concentration-dependent effects were assessed using pyrimethamine as a stage-specific and slow-acting control, as described elsewhere.
# [2] = tested on: P. falciparum K1 (Thailand); experiment: [3H]-hypoxanthine incorporation assay, K1; type: cell-based, Plasmodium falciparum; settings: read-out: 50% inhibitory concentration (IC50); K1, resistance CQ, SUL, PYR, CYC; mean ± SD
# [3] = tested on: P. falciparum 7G8 (Brazil); experiment: [3H]-hypoxanthine incorporation assay, 7G8; type: cell-based, Plasmodium falciparum; settings: read-out: 50% inhibitory concentration (IC50); 7G8, resistance CQ, PYR, CYC; mean ± SD
# [4] = tested on: P. falciparum TM90C2A (Thailand); experiment: [3H]-hypoxanthine incorporation assay, TM90C2A; type: cell-based, Plasmodium falciparum; settings: read-out: 50% inhibitory concentration (IC50), resistance CQ, PYR, MFQ, CYC, mean ± SD
# [5] = tested on: Cam3.II^C580Y and Cam3.II^rev 0–3 h postinvasion rings; experiment: Ring-stage survival assay (RSA0-3h); type: cell-based, P. falciparum; settings: 6-h pulse, 35–700 nM, survival assessed 66 h later
# Method: Ring-stage survival assays (RSA0-3h) were carried out at Columbia University Medical Center (New York, United States) as previously described. Parasite cultures were synchronized using 5% sorbitol (Sigma-Aldrich), and schizonts were incubated in RPMI-1640 containing 15 units/ml sodium heparin for 15 min at 37°C to disrupt agglutinated erythrocytes. These schizonts were concentrated over a gradient of 75% Percoll (Sigma-Aldrich), washed once in RPMI-1640, and incubated for 3 h with fresh erythrocytes to allow time for merozoite invasion. Cultures were then subjected again to sorbitol treatment to eliminate remaining schizonts. The 0–3 h postinvasion rings were adjusted to 1% parasitemia and 2% hematocrit in 1 mL volumes (in 48-well plates) and exposed to a range of ACT-451840 drug concentration (700–35 nM) or 0.1% DMSO for 6 h. Duplicate wells were established for each parasite line ± drug concentration. One-mL cultures were then transferred to 15-mL conical tubes, centrifuged at 800xg for 5 min to pellet the cells, and the supernatants carefully removed. As a washing step to remove drug, 10 mL culture medium were added to each tube, and the cells were resuspended, centrifuged, and the medium was aspirated. […] Stained parasites were detected using a BD Accuri 6 Flow Cytometer and analyzed using FlowJo Software. IC50 values were determined by nonlinear regression using GraphPad Prism 6.0. […]
# [6] = tested on: P. falciparum clinical isolates (Papua, Indonesia); experiment: Ex vivo drug susceptibility, P. falciparum clinical isolates; type: cell-based, Plasmodium falciparum; settings: P. falciparum clinical isolates, n = 27 (closed symbols); read-out: median IC50
# Method: (§2) […]. Thick blood films made from each well were stained with 5% Giemsa solution for 30 min and examined microscopically. The number of schizonts per 200 asexual-stage parasites was determined for each drug concentration and normalized to the control well.
# [7] = tested on: P. vivax clinical isolates (Papua, Indonesia); experiment: Ex vivo drug susceptibility, P. vivax clinical isolates; type: cell-based, Plasmodium vivax; settings: P. vivax clinical isolates, n = 34 (open symbols); read-out: median IC50
# Method: as §2
# [8] = tested on: synchronous cultures of P. falciparum NF54; experiment: In vitro time-, stage- and concentration-dependent effects; type: cell-based, Plasmodium falciparum; settings: 6 or 24 h exposure
# Method: as §1
# [9] = tested on: P. falciparum NF54 male gametocytes; experiment: P. falciparum dual gamete formation assay, male; type: cell-based, Plasmodium falciparum; settings: 24 h incubation; ± SD; read-out: IC50 male gamete formation (exflagellation centers)
# Method: Mature P. falciparum NF54 gametocytes were cultured at Imperial College London (London, United Kingdom), as previously described. […] Male gamete formation was quantified by computer-aided automated identification and counting of exflagellation centers. Female gamete formation was visualized by live immunofluorescence with a Cy3-conjugated antibody specific for Pfs25—a female gamete expressed surface protein. […] IC50 values were calculated using GraphPad Prism version 6 using the logarithmic versus normalized response (variable slope) function (Graphpad Software, San Diego, US).
# [10] = Pharmacokinetic study in healthy mice; type: in vivo, female NMRI mice
# Method: Female NMRI mice were purchased from Harlan (Horst, The Netherlands) by Actelion Pharmaceuticals. ACT-451840 was formulated as a solution in corn oil and dosed via oral gavage at 10, 100, and 300 mg/kg. Serial blood samples were collected at 0.5, 2, 4, and 8 h after dosing from two mice and after 1, 3, 6, and 24 h from two other mice, creating composite PK profiles from, in total, four mice per dose. Blood samples were analyzed using liquid chromatography coupled to tandem mass spectrometry (LC-MS/MS) after protein precipitation. PK parameters were estimated using non-compartmental analysis from the composite profiles.
# [11] = Safety pharmacology in dogs; type: in vivo; settings: dogs dosed up to 500 mg/kg
# [12] = in vivo
# [13] = Effect of formulation and food on oral pharmacokinetics in dogs; type: in vivo; settings: for AUC increase versus suspension formulation / Cmax increase versus suspension formulation: fasted dogs; for AUC0-∞ geometric mean / Cmax geometric mean: dogs, 100 mg oral, fasted
# [14] = single oral 10 mg/kg in corn oil
# [15] = single oral 100 mg/kg in corn oil
# [16] = single oral 300 mg/kg in corn oil
structure (smiles),measurement,setting,value
CC(=O)N1CCN(c2ccc(CN(C(=O)/C=C/c3ccc(C(C)(C)C)cc3)[C@@H](Cc3ccccc3)C(=O)N3CCN(Cc4ccc(C#N)cc4)CC3)cc2)CC1 [ACT-451840],IC90,"[1]; NF54, n ≥ 3",600 pM
same,IC99,"[1]; NF54, n ≥ 3",1.2 ± 0.0 nM
same,IC50,"[1]; read-out: 50% inhibitory concentration (IC50), NF54, no resistance, n = 3",400 pM
same,IC50,[2],300 pM
same,IC50,[3],300 ± 100 pM
same,IC50,[4],1000 ± 300 pM
same,"ring-stage survival rates, wild-type K13 allele versus C580Y mutation",[5],No difference in survival rates
same,IC50,[6],2500 pM
same,IC50,[7],3000 pM
same,stage specificity of growth reduction,[8],affected all asexual erythrocytic stages equally
same,IC50,[9],5890 pM
same,AUC (ng/mL*h),[10]; [14],"1,780 ± 18%"
same,Cmax (ng/mL),[10]; [14],415 ± 20%
same,Tmax,[10]; [14],2.5 h
same,AUC (ng/mL*h),[10]; [15],"32,900 ± 36%"
same,Cmax (ng/mL),[10]; [15],"3,910 ± 20%"
same,Tmax,[10]; [15],6 h
same,AUC (ng/mL*h),[10]; [16],"60,900 ± 33%"
same,Cmax (ng/mL),[10]; [16],"7,010 ± 32%"
same,Tmax,[10]; [16],7 h
same,effect on cardiovascular parameters,[11],no effect
same,"genotoxicity, micronucleus test",[12],not genotoxic
same,AUC increase versus suspension formulation,[13]; Phosal 53 MCT solution,5.0 fold
same,Cmax increase versus suspension formulation,[13]; Phosal 53 MCT solution,4.3 fold
same,AUC increase versus suspension formulation,[13]; corn oil solution,7.8 fold
same,Cmax increase versus suspension formulation,[13]; corn oil solution,8.1 fold
same,AUC0-∞ geometric mean,[13]; Phosal 53 MCT solution,597 ng·h/mL
same,Cmax geometric mean,[13]; Phosal 53 MCT solution,112 ng/mL
same,AUC0-∞ geometric mean,[13]; corn oil solution,935 ng·h/mL
same,Cmax geometric mean,[13]; corn oil solution,213 ng/mL
